Assay results as given in patent US11529354B2, “Methods and compositions for the treatment of tuberculosis” (PRESIDENT AND FELLOWS OF HARVARD COLLEGE, priority 2017, dated 2022).
≈ marks a conversion by molar mass, not a printed value. Read-outs that look alike come from different tables or passages of the source.

Tests used:
[1] = system: Bacillus Calmette-Guérin (BCG); assay: organism not typed; assay type: cell-based, Mycobacterium bovis
MTT cytotoxicity assay = details: human
M. abscessus BZ-24 = assay: MIC on closely related bacteria: M. abscessus; assay type: cell-based; details: Mycobacteroides abscessus, BZ24
M. cheelonae BZ-4 = assay: MIC on closely related bacteria: M. cheelonae; assay type: cell-based
M. scrofulaceum BZ-20 = assay: MIC on closely related bacteria: M. scrofulaceum; assay type: cell-based; details: Mycobacterium scrofulaceum, BZ20
M. xenopi BZ-23 = assay: MIC on closely related bacteria: M. xenopi; assay type: cell-based; details: Mycobacterium xenopi, BZ23
M. terrae BZ-15 = assay: MIC on closely related bacteria: M. terrae; assay type: cell-based; details: Mycolicibacter terrae, BZ15
MTB H37Rv = assay: microbe, parasite or virus in culture; assay type: cell-based, Mycobacterium tuberculosis; details: susceptible H37Rv
M. avium A209 = assay: MIC on closely related bacteria: M. avium; assay type: cell-based; details: Mycobacterium avium
[2] = system: intracellular BCG within macrophages; assay type: cell-based, Mycobacterium bovis
[3] = system: GFP-expressing BCG in infected THP-1 cells; assay: microbe, parasite or virus in culture; assay type: cell-based; details: Mycobacterium tuberculosis variant bovis BCG, THP-1, read-out: IC50, growth of GFP-expressing BCG in infected THP-1 cells
in vitro = details: human
[4] = system: clinical Mycobacterium tuberculosis strains (HsRs: 90#, 140#, 74#); assay: microbe, parasite or virus in culture; assay type: cell-based
[5] = read-out: MIC from in vitro validation
[6] = read-out: MIC from in vitro validation on BCG

O=c1/c(=C/c2cc(Br)ccc2F)sc2nc3ccccc3n12 [CAS 292169-72-3, (Z)-2-(5-Bromo-2-fluorobenzylidene)benzo[4,5]imidazo[2,1-b]thiazol-3(2H)-one]
MIC [1, 5]: > 128 µg/mL

CO[C@H]1/C=C/O[C@@]2(C)Oc3c(C)c(O)c4c(O)c(c(/C=N/N5CCN(C)CC5)c(O)c4c3C2=O)NC(=O)/C(C)=C\C=C\[C@H](C)[C@H](O)[C@@H](C)[C@@H](O)[C@@H](C)[C@H](OC(C)=O)[C@@H]1C [Rifampicin, reference compound]
IC50 (MTT cytotoxicity assay): 1 µg/mL (≈ 1.22 µM)

O=[N+]([O-])c1ccc(C2CC(c3ccccc3)=Nc3ccccc3S2)cc1 (centres unmarked) [NSC 270738, 2-(4-nitrophenyl)-4-phenyl-2,3-dihydro-1,5-benzothiazepine]
MIC [1, 6]: 5 µg/mL (≈ 13.9 µM)

CO[C@@H]1[C@@H](OC(=O)c2ccc(C)[nH]2)[C@@H](O)[C@H](Oc2ccc3c(O)c(NC(=O)c4ccc(O)c(CC=C(C)C)c4)c(=O)oc3c2Cl)OC1(C)C [NSC 227186, [(3R,4S,5R,6S)-6-[8-chloro-4-hydroxy-3-[[4-hydroxy-3-(3-methylbut-2-enyl)benzoyl]amino]-2-oxochromen-7-yl]oxy-5-hydroxy-3-methoxy-2,2-dimethyloxan-4-yl]5-methyl-1H-pyrrole-2-carboxylate]
MIC (M. abscessus BZ-24): 40 µg/mL (≈ 57.4 µM) | MIC (M. cheelonae BZ-4): 40 µg/mL (≈ 57.4 µM) | MIC (M. scrofulaceum BZ-20): 80 µg/mL (≈ 115 µM) | MIC (M. xenopi BZ-23): 80 µg/mL (≈ 115 µM) | MIC (M. terrae BZ-15): > 80 µg/mL | performance on BCG compared with isoniazid and rifampicin [1]: performed at levels comparable of isoniazid and rifampicin | MIC [1, 6]: 0.625 µg/mL (≈ 0.897 µM) | MIC (MTB H37Rv; Mycobacterium tuberculosis, Table 4, read-out: MIC): < 0.625 µg/mL | MIC (M. avium A209): 80 µg/mL (≈ 115 µM)

Cn1ccc(=Nc2ccc(NC(=O)c3ccc(N=c4ccn(C)c5ccc([N+](=O)[O-])cc45)cc3)cc2)cc1 [NSC 260594, 4-[(1-methyl-6-nitroquinolin-4-ylidene)amino]-N-[4-[(1-methylpyridin-4-ylidene)amino]phenyl]benzamide]
MIC (M. abscessus BZ-24): > 80 µg/mL | intracellular anti-TB activity against BCG [2]: time- and concentration-dependent anti-TB activity | MIC (M. cheelonae BZ-4): > 80 µg/mL | IC50 [3]: 7.8 µg/mL (≈ 15.5 µM) | MIC (M. scrofulaceum BZ-20): > 80 µg/mL | MIC (M. xenopi BZ-23): > 80 µg/mL | MIC (M. terrae BZ-15): 2.5 µg/mL (≈ 4.95 µM) | performance on BCG compared with isoniazid and rifampicin [1]: performed at levels comparable of isoniazid and rifampicin | MIC [1, 6]: 0.078 µg/mL (≈ 0.155 µM) | MIC (MTB H37Rv; Mycobacterium tuberculosis, Table 7 and text, read-out: MIC): < 0.625 µg/mL | MIC (MTB H37Rv; Table 4): <0.625 µg/mL | MIC (MTB H37Rv; Table 7 and text): <0.625 µg/mL | MIC (M. avium A209): 1.25 µg/mL (≈ 2.48 µM) | IC50 (in vitro): 7.5 µg/mL (≈ 14.9 µM)

c1ccc2cc(OCCOCCOc3ccc4ccccc4c3)ccc2c1 [NSC 37219, 2-[2-(2-naphthalen-2-yloxyethoxy)ethoxy]naphthalene]
MIC [1, 6]: 80 µg/mL (≈ 223 µM)

Cc1ccc2[nH]c3c(c2c1)CCCC3NCc1ccccc1 (centres unmarked) [CAS 118498-98-9, N-benzyl-6-methyl-2,3,4,9-tetrahydro-1H-carbazol-1-amine]
MIC [4]: 6.4 µg/mL (≈ 22 µM) | MIC ([4]; strain 74#, HsRs, read-out: MIC): 6.4 µg/mL (≈ 22 µM) | MIC ([4]; strain 140#, HsRs, read-out: MIC): 3.2 µg/mL (≈ 11 µM) | MIC [1, 5]: 32 µg/mL (≈ 110 µM)

O=C(Nc1ccc(Oc2ccc(NC(=O)Nc3ccccc3Cl)cc2)cc1)Nc1ccccc1Cl [NSC 80731, 1-(2-chlorophenyl)-3-[4-[4-[(2-chlorophenyl)carbamoylamino]phenoxy]phenyl]urea]
MIC [1, 6]: 80 µg/mL (≈ 158 µM)

O=C1CC(c2cccc(O)c2)Nc2ccc3ccccc3c21 (centres unmarked) [CAS 333759-52-7, 3-(3-hydroxyphenyl)-3,4-dihydrobenzo[f]quinolin-1(2H)-one]
MIC [1, 5]: > 128 µg/mL

COc1ccc(N2COc3ccc4cc(Br)ccc4c3C2)cc1 [CAS 376374-34-4, 8-bromo-2-(4-methoxyphenyl)-2,3-dihydro-1H-naphtho[1,2-e][1,3]oxazine]
MIC [1, 5]: 128 µg/mL (≈ 346 µM)

O=[N+]([O-])c1cccc(CNC2CCCc3ccccc32)c1 (centres unmarked) [CAS 353779-33-6, N-(3-nitrobenzyl)-1,2,3,4-tetrahydronaphthalen-1-amine]
MIC [1, 5]: 128 µg/mL (≈ 453 µM)

O=C(Nc1cccc(-c2nc3ccccc3[nH]2)c1)c1ccc(C(=O)Nc2cccc(-c3nc4ccccc4[nH]3)c2)cc1 [NSC 61610, 1-N,4-N-bis[3-(1H-benzimidazol-2-yl)phenyl]benzene-1,4-dicarboxamide]
MIC [1, 6]: 40 µg/mL (≈ 72.9 µM)

O=C(O)C1C2C(=O)N(Cc3ccccn3)C[C@]23C=C[C@H]1O3 (stereo partly drawn) [CAS 1164528-69-1, (3aS,6R)-1-oxo-2-(pyridin-2-ylmethyl)-1,2,3,6,7,7a-hexahydro-3a,6-epoxyisoindole-7-carboxylic acid]
MIC [1, 5]: > 128 µg/mL

O=[N+]([O-])c1ccccc1CNCCc1c[nH]c2ccccc12 [CAS 355816-45-4, 2-(1H-indol-3-yl)-N-(2-nitrobenzyl)ethanamine]
MIC [1, 5]: 128 µg/mL (≈ 433 µM)
